We go through ten compounds from article PMC11519910, “Semisynthetic Ecdysteroid Cinnamate Esters and tert-Butyl Oxime Ether Derivatives with Trypanocidal Activity” (Journal of Natural Products, 2024).

Where two headings read alike, the source gives them in different places. Bounds are passed on as bounds.

In one data set the test system is T. cruzi. Details: method as in PMID 30517542. The note with it: free acid forms; read-out: IC50, antitrypanosomal activity; cited from earlier work.
A further data set has as its system T. cruzi epimastigotes. Kind of data set: Trypanocidal activity against epimastigotes (XTT). Format: cell-based, Trypanosoma cruzi. The note with it: for inhibition at 5 µM: read-out: inhibition of epimastigote proliferation; for IC50: 72 h incubation, read-out: IC50, epimastigote proliferation. As for the experimental part: Trypanocidal activity against epimastigotes was assessed by XTT (2,3-bis(2-methoxy-4-nitro-5-sulfophenyl)-2H-tetrazolium-5-carboxanilide). Briefly, 1.5 × 10^6 epimastigotes were seeded per well in 96-well plates. The ecdysteroid was added at 8 concentrations ranging from 25 to 0.2 μM for 72 h at 28 °C. […] Following the incubation period, the plates were examined under the microscope for sterility and growth of controls. To the plates, 50 μL of XTT and PMS (phenazine methosulfate, Sigma-Aldrich, MO, USA) solution (XTT and PMS at 0.5 and 0.025 mg/mL, respectively) was added, and the plates were then incubated at 28 °C for 3 h. The parasites were fixed by the addition of 50 μL of MeOH for 15 min before the absorbance was measured at 490 nm on a Tecan plate reader. Results were expressed as percentage cell viability relative to the vehicle control or IC50 values calculated by GraphPad Prism version 8.0. All assessments were performed in triplicates in three independent experiments.
For orientation: Formazan colour is commonly taken as a measure of viable cells.

A further data set deals with RAW264.7 cells. The data set is described as follows: cells. In kind it is cell-based. The method, then:
Cytotoxicity or antiproliferative effects of ecdysteroid against mammalian cells was assessed using MTT (3-(4,5-dimethylthiazol-2-yl)-2,5-diphenyltetrazolium bromide). CHO or RAW264.7 cells were used for screening the compounds. Briefly, the cells were seeded at a density of 2000/well in 96-well plates. After 24 h of incubation at 37 °C and 5% CO2, ecdysteroid ([…]) was added to the cells at various concentrations. In all the experiments, podophyllotoxin was used as the positive control. In all experiments, vehicle controls were included, and the final DMSO concentration was below 0.5%. After 72 h, the plates were examined under an inverted microscope for sterility and growth of controls after the incubation period. The spent medium was removed, and 100 μL of fresh medium containing 0.5 mg/mL of the final concentration of MTT was added to the cells. The plates were incubated for 4 h at 37 °C in 5% CO2. The formazan crystals were solubilized by adding 200 μL of DMSO and mixed thoroughly. The absorbance was determined at 550 nm by using a Tecan plate reader. The values were corrected to the blank medium and vehicle control (DMSO only). Results were expressed as percentage cell viability relative to the vehicle control. Each assay was performed in technical triplicate in three independent experiments.

Data set [1] relates to T. cruzi amastigotes in CCL39 fibroblasts. The data set is described as follows: Fluorescence microscopy of amastigote replication in infected CCL39 fibroblasts. In kind it is cell-based, Trypanosoma cruzi. The note with it: 5 μM, of infection. As for the experimental part:
The host CCL39 cells were seeded in 24-well plates at a density of 20,000 cells/mL. The cells were allowed to adhere for 24 h and infected with trypomastigotes at a multiplicity of 10. On the next day, non-internalized trypomastigotes were washed away, and fresh RPMI with 2% hiFBS was added to the wells along with the test substance. […] The images were analyzed on ImageJ.

The subject of data set [2] is T. cruzi (GFPY parasite release in trypomastigote-infected RAW264.7 cells). The data set is described as follows: FACS-based quantitation of released parasites from infected RAW264.7 cells. In kind it is cell-based, Trypanosoma cruzi. As for the experimental part: The host RAW264.7 cells were seeded in 24-well plates at a density of 20,000 cells/mL. The cells were allowed to adhere for 24 h and infected with trypomastigotes at a multiplicity of 10. On the next day, noninternalized trypomastigotes were washed away, and fresh RPMI with 2% hiFBS was added to the wells along with the C44 at various concentrations. […] Three independent experiments in triplicates were performed to determine the activity of the ecdysteroid.

On to `COc1cc(C=CC(=O)O)cc(OC)c1OC` [3,4,5-trimethoxycinnamic acid], for which the IC50 with T. cruzi was greater than 600 µM.
Turning to `COc1ccc(C=CC(=O)O)cc1` [4-methoxycinnamic acid (p-coumaric acid), 4-methoxycinnamic acid], in the data set on T. cruzi, the IC50 was greater than 600 µM.
As to `CC(C)(O)CC[C@H]1OC(C)(C)O[C@]1(C)[C@H]1CC[C@@]2(O)C3=C/C(=N\OC(C)(C)C)[C@@H]4C[C@H]5OC(C)(C)O[C@H]5C[C@]4(C)[C@H]3CC[C@]12C` [Compound 24], in the data set with T. cruzi epimastigotes (Trypanosoma cruzi, 72 h), the inhibition at 5 µM is no less than 30%.
Turning to `CC(C)(O)CC[C@H]1OC(C)(C)O[C@]1(C)[C@H]1CC=C2C3=C/C(=N/OC(C)(C)C)[C@@H]4C[C@H]5OC(C)(C)O[C@H]5C[C@]4(C)[C@H]3CC[C@@]21C` [Compound 28], the inhibition at 5 µM in the data set on T. cruzi epimastigotes (Trypanosoma cruzi, 72 h) was no less than 30%.
On the same count and under the same terms, in the case of `CC(C)(O)CC[C@@H](OC(=O)/C=C/c1ccccc1)[C@](C)(O)[C@H]1CC[C@@]2(O)C3=CC(=O)[C@@H]4C[C@@H](OC(=O)/C=C/c5ccccc5)[C@@H](O)C[C@]4(C)[C@H]3CC[C@]12C` [Compound 39] it was no less than 30%; in that of `CC(C)(O)CC[C@@H](OC(=O)/C=C/c1ccccc1)[C@](C)(O)[C@H]1CC[C@@]2(O)C3=CC(=O)[C@@H]4C[C@@H](O)[C@@H](OC(=O)/C=C/c5ccccc5)C[C@]4(C)[C@H]3CC[C@]12C` [Compound 40], no less than 30%; in that of `CC(C)(O)CC[C@@H](O)[C@](C)(O)[C@H]1CC=C2C3=C/C(=N\OC(C)(C)C)[C@@H]4C[C@@H](O)[C@@H](O)C[C@]4(C)[C@H]3CC[C@@]21C` [Compound 42], less than 30%.
Still for that read-out and setting: to `CC(C)(O)CC[C@@H](O)[C@](C)(O)[C@H]1CC=C2C3=C/C(=N/OC(C)(C)C)[C@@H]4C[C@@H](O)[C@@H](O)C[C@]4(C)[C@H]3CC[C@@]21C` [Compound 43] belongs less than 30%.
As to `CC(C)(O)CC[C@@H](O)[C@](C)(O)[C@H]1CC=C2C3=C/C(=N\OC(C)(C)C)[C@@H]4C[C@@H](O)[C@@H](OC(=O)/C=C/c5ccccc5)C[C@]4(C)[C@H]3CC[C@@]21C` [Compound 44], in the data set on RAW264.7 cells, the “cytotoxicity on the host cells” value is “moderate cytotoxicity”. The IC50 is 11.6 ± 1.6 µM in the data set with RAW264.7 cells (Mus musculus, RAW264.7, MTT, 72 h of incubation, read-out: IC50, cell proliferation in RAW264.7 cells); 2.7 ± 0.1 µM in data set [2] (Trypanosoma cruzi, 144 h, trypomastigote-infected RAW264.7 cells, FACS after 6 days); 1.7 ± 0.2 µM in the data set on T. cruzi epimastigotes; less than 2 µM in the data set on T. cruzi epimastigotes (Trypanosoma cruzi, 72 h). Moreover, the “selectivity, T. cruzi over RAW264.7 host macrophages” value with RAW264.7 cells (apparent selectivity, cytotoxicity toward T. cruzi vs host cells) is “more than 5 fold”. The “inhibition of amastigote replication” value in data set [1] is “efficiently inhibits amastigote replication”. In data set [2] (infected RAW264.7 cells), the “inhibition of trypomastigote release” value is listed as “more than 95%”.
Consider `COc1ccc(/C=C/C(=O)O)c(OC)c1` [trans-2,4-dimethoxycinnamic acid], for which the IC50 in the data set on T. cruzi is greater than 600 µM.
